Test results from ChEMBL document CHEMBL3885881, “DrugMatrix”.

Organism: Rattus norvegicus
Assay: DrugMatrix - Regimen: Daily Repeat
Type: toxicity, organism-based, Sprague-Dawley
Parameters: regimen Daily Repeat, gender Male, age 6-8 weeks
Settings: in vivo, po, route oral GAVAGE, […]; for ABSOLUTE BASOPHIL / ABSOLUTE EOSINOPHIL / ABSOLUTE LYMPHOCYTE / ABSOLUTE MONOCYTE / ABSOLUTE SEGMENTED NEUTROPHIL / BASOPHIL / EOSINOPHIL / ERYTHROCYTE COUNT / HEMATOCRIT / HEMOGLOBIN / LEUKOCYTE COUNT / LYMPHOCYTE / MEAN CORPUSCULAR HEMOGLOBIN / MEAN CORPUSCULAR HEMOGLOBIN CONCENTRATION / MEAN CORPUSCULAR VOLUME / MONOCYTE / NEUTROPHIL / NUCLEATED RED BLOOD CELLS / PLATELET COUNT: tissue Blood; for ALANINE AMINOTRANSFERASE / ALBUMIN / ALKALINE PHOSPHATASE / ASPARTATE AMINOTRANSFERASE / BLOOD UREA NITROGEN / CARBON DIOXIDE / CHLORIDE / CHOLESTEROL / CREATINE PHOSPHOKINASE / CREATININE / GLUCOSE / LACTATE DEHYDROGENASE / LIPASE / PHOSPHORUS / POTASSIUM / SODIUM / TOTAL BILIRUBIN / TOTAL PROTEIN / URIC ACID: tissue Plasma
[1] = 0 mg/kg, 72 h, dose level Control, time 3 day
[2] = 0 mg/kg, 120 h, dose level Control, time 5 day
[3] = 10 mg/kg, 72 h, dose level Low, time 3 day
[4] = 10 mg/kg, 120 h, dose level Low, time 5 day

## C#C[C@]1(O)CC[C@H]2[C@@H]3CCc4cc(O)ccc4[C@H]3CC[C@@]21C [ETHINYL ESTRADIOL]
[1]
  ABSOLUTE BASOPHIL: 0 CELLS/uL
  ABSOLUTE EOSINOPHIL: 104.17 CELLS/uL
  ABSOLUTE LYMPHOCYTE: 14547 CELLS/uL
  ABSOLUTE MONOCYTE: 292 CELLS/uL
  ABSOLUTE SEGMENTED NEUTROPHIL: 1640.17 CELLS/uL
  BASOPHIL: 0%
  EOSINOPHIL: 0.67%
  ERYTHROCYTE COUNT: 5.35 x10E6/uL
  HEMATOCRIT: 33.67%
  HEMOGLOBIN: 13.38 G/DL
  LEUKOCYTE COUNT: 16.58 x10E3/uL
  LYMPHOCYTE: 87.5%
  MEAN CORPUSCULAR HEMOGLOBIN: 25.05 pg
  MEAN CORPUSCULAR HEMOGLOBIN CONCENTRATION: 39.78 G/DL
  MEAN CORPUSCULAR VOLUME: 62.97 fL
  MONOCYTE: 1.83%
  NEUTROPHIL: 10%
  NUCLEATED RED BLOOD CELLS: 0 /100WBC
  PLATELET COUNT: 1274.5 x10E3/uL
  ALANINE AMINOTRANSFERASE: 76.83 u/L
  ALBUMIN: 3.97 G/DL
  ALKALINE PHOSPHATASE: 347 u/L
  ASPARTATE AMINOTRANSFERASE: 97.17 u/L
  BLOOD UREA NITROGEN: 14.33 mg/dL
  CARBON DIOXIDE: 25.5 mmol/L
  CHLORIDE: 100.33 MEQ/L
  CHOLESTEROL: 68.67 mg/dL
  CREATINE PHOSPHOKINASE: 659.17 u/L
  CREATININE: 0.32 mg/dL
  GLUCOSE: 160.67 mg/dL
  LACTATE DEHYDROGENASE: 271.5 u/L
  LIPASE: 11.67 u/L
  PHOSPHORUS: 10.65 mg/dL
  POTASSIUM: 5.95 MEQ/L
  SODIUM: 139.65 MEQ/L
  TOTAL BILIRUBIN: 0.2 mg/dL
  TOTAL PROTEIN: 5.72 G/DL
  URIC ACID: 1.37 mg/dL
[2]
  ABSOLUTE BASOPHIL: 0 CELLS/uL
  ABSOLUTE EOSINOPHIL: 331.5 CELLS/uL
  ABSOLUTE LYMPHOCYTE: 15021.67 CELLS/uL
  ABSOLUTE MONOCYTE: 376.5 CELLS/uL
  ABSOLUTE SEGMENTED NEUTROPHIL: 3070.33 CELLS/uL
  BASOPHIL: 0%
  EOSINOPHIL: 1.83%
  ERYTHROCYTE COUNT: 5.24 x10E6/uL
  HEMATOCRIT: 33.22%
  HEMOGLOBIN: 13.2 G/DL
  LEUKOCYTE COUNT: 18.8 x10E3/uL
  LYMPHOCYTE: 79.67%
  MEAN CORPUSCULAR HEMOGLOBIN: 25.17 pg
  MEAN CORPUSCULAR HEMOGLOBIN CONCENTRATION: 39.73 G/DL
  MEAN CORPUSCULAR VOLUME: 63.38 fL
  MONOCYTE: 2%
  NEUTROPHIL: 16.5%
  NUCLEATED RED BLOOD CELLS: 0 /100WBC
  PLATELET COUNT: 1142.67 x10E3/uL
  ALANINE AMINOTRANSFERASE: 52.5 u/L
  ALBUMIN: 3.9 G/DL
  ALKALINE PHOSPHATASE: 284.5 u/L
  ASPARTATE AMINOTRANSFERASE: 81.33 u/L
  BLOOD UREA NITROGEN: 16 mg/dL
  CARBON DIOXIDE: 25.33 mmol/L
  CHLORIDE: 99.5 MEQ/L
  CHOLESTEROL: 74.83 mg/dL
  CREATINE PHOSPHOKINASE: 448.33 u/L
  CREATININE: 0.37 mg/dL
  GLUCOSE: 164.17 mg/dL
  LACTATE DEHYDROGENASE: 290.67 u/L
  LIPASE: 6.83 u/L
  PHOSPHORUS: 11.5 mg/dL
  POTASSIUM: 6.28 MEQ/L
  SODIUM: 139.5 MEQ/L
  TOTAL BILIRUBIN: 0.13 mg/dL
  TOTAL PROTEIN: 5.55 G/DL
  URIC ACID: 1.12 mg/dL
[3]
  ABSOLUTE BASOPHIL: 0 CELLS/uL
  ABSOLUTE EOSINOPHIL: 112 CELLS/uL
  ABSOLUTE LYMPHOCYTE: 12658 CELLS/uL
  ABSOLUTE MONOCYTE: 346 CELLS/uL
  ABSOLUTE SEGMENTED NEUTROPHIL: 1350.67 CELLS/uL
  BASOPHIL: 0%
  EOSINOPHIL: 1%
  ERYTHROCYTE COUNT: 5.67 x10E6/uL
  HEMATOCRIT: 36.5%
  HEMOGLOBIN: 13.83 G/DL
  LEUKOCYTE COUNT: 14.47 x10E3/uL
  LYMPHOCYTE: 87.33%
  MEAN CORPUSCULAR HEMOGLOBIN: 24.43 pg
  MEAN CORPUSCULAR HEMOGLOBIN CONCENTRATION: 37.9 G/DL
  MEAN CORPUSCULAR VOLUME: 64.47 fL
  MONOCYTE: 2.33%
  NEUTROPHIL: 9.33%
  NUCLEATED RED BLOOD CELLS: 0 /100WBC
  PLATELET COUNT: 1151 x10E3/uL
  ALANINE AMINOTRANSFERASE: 33.67 u/L
  ALBUMIN: 3.67 G/DL
  ALKALINE PHOSPHATASE: 715.33 u/L
  ASPARTATE AMINOTRANSFERASE: 58.67 u/L
  BLOOD UREA NITROGEN: 12 mg/dL
  CARBON DIOXIDE: 22 mmol/L
  CHLORIDE: 103.33 MEQ/L
  CHOLESTEROL: 20 mg/dL
  CREATINE PHOSPHOKINASE: 384.33 u/L
  CREATININE: 0.1 mg/dL
  GLUCOSE: 148.33 mg/dL
  LACTATE DEHYDROGENASE: 168.67 u/L
  LIPASE: 8 u/L
  PHOSPHORUS: 10.77 mg/dL
  POTASSIUM: 6.1 MEQ/L
  SODIUM: 141.07 MEQ/L
  TOTAL BILIRUBIN: 0.13 mg/dL
  TOTAL PROTEIN: 5.3 G/DL
  URIC ACID: 1.13 mg/dL
[4]
  ABSOLUTE BASOPHIL: 0 CELLS/uL
  ABSOLUTE EOSINOPHIL: 138 CELLS/uL
  ABSOLUTE LYMPHOCYTE: 9196.33 CELLS/uL
  ABSOLUTE MONOCYTE: 408.33 CELLS/uL
  ABSOLUTE SEGMENTED NEUTROPHIL: 1390.67 CELLS/uL
  BASOPHIL: 0%
  EOSINOPHIL: 1%
  ERYTHROCYTE COUNT: 5.71 x10E6/uL
  HEMATOCRIT: 34.9%
  HEMOGLOBIN: 13.2 G/DL
  LEUKOCYTE COUNT: 11.13 x10E3/uL
  LYMPHOCYTE: 83%
  MEAN CORPUSCULAR HEMOGLOBIN: 23.1 pg
  MEAN CORPUSCULAR HEMOGLOBIN CONCENTRATION: 37.83 G/DL
  MEAN CORPUSCULAR VOLUME: 61.17 fL
  MONOCYTE: 3.67%
  NEUTROPHIL: 12.33%
  NUCLEATED RED BLOOD CELLS: 0 /100WBC
  PLATELET COUNT: 1450 x10E3/uL
  ALANINE AMINOTRANSFERASE: 54.67 u/L
  ALBUMIN: 3.87 G/DL
  ALKALINE PHOSPHATASE: 644.33 u/L
  ASPARTATE AMINOTRANSFERASE: 72.67 u/L
  BLOOD UREA NITROGEN: 8.33 mg/dL
  CARBON DIOXIDE: 22.33 mmol/L
  CHLORIDE: 101.33 MEQ/L
  CHOLESTEROL: 17.33 mg/dL
  CREATINE PHOSPHOKINASE: 692.67 u/L
  CREATININE: 0.12 mg/dL
  GLUCOSE: 153.33 mg/dL
  LACTATE DEHYDROGENASE: 158 u/L
  LIPASE: 4.33 u/L
  PHOSPHORUS: 10.27 mg/dL
  POTASSIUM: 5.78 MEQ/L
  SODIUM: 139.87 MEQ/L
  TOTAL BILIRUBIN: 0.23 mg/dL
  TOTAL PROTEIN: 6.07 G/DL
  URIC ACID: 1.63 mg/dL
